ChEMBL document CHEMBL1201862, “PubChem BioAssay data set” (2004)
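Values below derive from 48-hour exposures of cells grown in 96-well plates, with endpoints linearly interpolated between the two concentrations bracketing the appropriate inhibition level. GI50 is the concentration that inhibits growth by half.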 The source made the active and inactive calls. No stated cut-off is given here; in the data, active = GI50 up to about 1.1 µM and inactive = higher.

Legend:
Assay in all cases: NCI tumour cell line growth inhibition, 48 h
SNB-75 = tested on: SNB-75
NCI-H522 = tested on: NCI-H522
UACC-257 = tested on: UACC-257
K562 = tested on: K562
SNB-19 = tested on: SNB-19
SNB-78 = tested on: SNB-78
KM12 = tested on: KM12
ACHN = tested on: ACHN
SK-MEL-28 = tested on: SK-MEL-28
LOX IMVI = tested on: LOX IMVI
DLD-1 = tested on: DLD-1
A549 = tested on: A549
786-0 = tested on: 786-0
CAKI-1 = tested on: CAKI-1
KM-20L2 = tested on: KM-20L2
SK-OV-3 = tested on: SK-OV-3
OVCAR-8 = tested on: OVCAR-8
COLO 205 = tested on: COLO 205
UACC-62 = tested on: UACC-62
TK-10 = tested on: TK-10
SN12C = tested on: SN12C
UO-31 = tested on: UO-31
EKVX = tested on: EKVX
SF-268 = tested on: SF-268
HOP-92 = tested on: HOP-92
HCC 2998 = tested on: HCC 2998
HOP-62 = tested on: HOP-62
IGROV-1 = tested on: IGROV-1
NCI-H23 = tested on: NCI-H23
HCT-15 = tested on: HCT-15
DMS-114 = tested on: DMS-114
Malme-3M = tested on: Malme-3M
M19-MEL = tested on: M19-MEL
RXF 393 = tested on: RXF 393
DMS-273 = tested on: DMS-273
SK-MEL-5 = tested on: SK-MEL-5
A498 = tested on: A498
OVCAR-3 = tested on: OVCAR-3
SK-MEL-2 = tested on: SK-MEL-2
U-251 = tested on: U-251
MOLT-4 = tested on: MOLT-4
SW-620 = tested on: SW-620
SF-539 = tested on: SF-539
OVCAR-5 = tested on: OVCAR-5
RPMI-8226 = tested on: RPMI-8226
NCI-H460 = tested on: NCI-H460
HL-60 = tested on: HL-60
SF-295 = tested on: SF-295
HOP-18 = tested on: HOP-18
CCRF-CEM = tested on: CCRF-CEM
HT-29 = tested on: HT-29
NCI-H226 = tested on: NCI-H226

CC1OC(OC2C(OC(=O)[C@]34CCC(C)(C)CC3C3=CCC5[C@@]6(C)C[C@H](O)[C@H](OC7OC(CO)C(O)C(O)C7N)[C@@](C)(C(=O)O)C6CC[C@@]5(C)C3(C)CC4)OCC(O)C2O)C(O)C(O)C1OC1OCC(O)C(O)C1O (some centres not stated)
GI50 (SNB-75): > 100 µM (inactive) | GI50 (NCI-H522): > 100 µM (inactive) | GI50 (UACC-257): > 100 µM (inactive) | GI50 (K562): > 100 µM (inactive) | GI50 (SNB-19): > 100 µM (inactive) | GI50 (SNB-78): > 100 µM (inactive) | GI50 (KM12): > 100 µM (inactive) | GI50 (ACHN): > 100 µM (inactive) | GI50 (SK-MEL-28): > 100 µM (inactive) | GI50 (LOX IMVI): > 100 µM (inactive) | GI50 (DLD-1): > 100 µM (inactive) | GI50 (A549): > 100 µM (inactive) | GI50 (786-0): > 100 µM (inactive) | GI50 (CAKI-1): > 100 µM (inactive) | GI50 (KM-20L2): > 100 µM (inactive) | GI50 (SK-OV-3): > 100 µM (inactive) | GI50 (OVCAR-8): > 100 µM (inactive) | GI50 (COLO 205): > 100 µM (inactive) | GI50 (UACC-62): > 100 µM (inactive) | GI50 (TK-10): > 100 µM (inactive) | GI50 (SN12C): > 100 µM (inactive) | GI50 (UO-31): > 100 µM (inactive) | GI50 (EKVX): > 100 µM (inactive) | GI50 (SF-268): > 100 µM (inactive) | GI50 (HOP-92): > 100 µM (inactive) | GI50 (HCC 2998): > 100 µM (inactive) | GI50 (HOP-62): > 100 µM (inactive) | GI50 (IGROV-1): > 100 µM (inactive) | GI50 (NCI-H23): > 100 µM (inactive) | GI50 (HCT-15): > 100 µM | GI50 (DMS-114): > 100 µM (inactive) | GI50 (Malme-3M): > 100 µM (inactive) | GI50 (M19-MEL): > 100 µM (inactive) | GI50 (RXF 393): > 100 µM (inactive) | GI50 (DMS-273): > 100 µM (inactive) | GI50 (SK-MEL-5): > 100 µM (inactive) | GI50 (A498): > 100 µM (inactive) | GI50 (OVCAR-3): > 100 µM (inactive) | GI50 (SK-MEL-2): > 100 µM (inactive) | GI50 (U-251): > 100 µM (inactive) | GI50 (MOLT-4): > 100 µM (inactive) | GI50 (SW-620): > 100 µM (inactive) | GI50 (SF-539): > 100 µM (inactive) | GI50 (OVCAR-5): > 100 µM (inactive) | GI50 (RPMI-8226): > 100 µM (inactive) | GI50 (NCI-H460): > 100 µM (inactive) | GI50 (HL-60): > 100 µM (inactive) | GI50 (SF-295): > 100 µM (inactive) | GI50 (HOP-18): > 100 µM (inactive) | GI50 (CCRF-CEM): > 100 µM (inactive) | GI50 (HT-29): > 100 µM (inactive) | GI50 (NCI-H226): > 100 µM (inactive)
